Source: US20090163481A1, “PPAR-DELTA LIGANDS AND METHODS OF THEIR USE” (priority 2007, published 2009)
pIC50: −log10 of the molar value.

Experiments:
[1] = system: A549 cultures; experiment: Real time PCR mRNA analysis of CDK2, CDK4, cyclin D1 in A549; format: cell-based, human; details: A549, 20 μM, 0.5% FBS, 24 and 48 h
Protocol: Referring now to FIG. 5D, to better define the level of regulation of SR13904 on cell cycle proteins, CDK2, CDK4, and cyclin D1 were selected for mRNA analysis using real time PCR. A549 cultures were treated with SR13904 (20 μM; 0.5% FBS) and sampled at 24- and 48-h time-points. […] For CDK2 the differences (SR13904-treated vs. vehicle control-treated) were significant (*p=0.01-0.05, **p=0.00-0.01). Computational analysis of the proximal human CDK2 promoter identified a number of putative consensus PPREs. None were found within the proximal promoter regions of the CDK4 and cyclin D1 genes. SR13904 may directly affect the transcriptional activity of CDK2 while exerting indirect effects on the expression of the CDK4 and cyclin D1 proteins, perhaps through control over PPARδ-dependent signaling pathways.

[2] = system: PC-3 cells; experiment: Western analysis of cyclin D1 and CDK2 in post-confluent PC-3 cells; format: cell-based, human; details: post-confluent PC-3, 48 h, SR 13904 10 μM, vehicle- and VLDL-treated cells
Protocol: Referring to FIG. 4, PC-3 cells were brought to confluence and cultured in serum-free OptiMem culture medium (Gibco) 2 h before treatment with a combination of VLDL (2 μg/ml+2 μg/ml LPL) and/or SR 13904 (10 μM) and incubated for an additional 48 h. Standard Western blotting was performed. Glyceraldehyde 3 phosphate dehydrogenase (GAPDH) was used a control for both blots.

[3] = system: A549; experiment: Alamar Blue proliferation assay, A549; format: cell-based; details: Homo sapiens, 96 h; A549, 0-40 μM, 0.5% serum, 4 days; read-out: IC50 for growth inhibition
Protocol: The effect of SR13904 on the proliferation of these cell lines was determined by an Alamar Blue assay. Exponentially growing cells were treated with a range of SR13904 concentrations (0-40 μM; in 0.5% serum) over 4 days and proliferation curves were determined. The IC50 values for growth inhibition by SR13904 for each cell line were determined. […] In addition, colony formation assays with SR13904 were performed with both A549 and Huh7 cells.

[4] = molecular target: T1, LBD of PPARδ protein (Homo sapiens, UniProt Q03181); experiment: PPARδ ligand-binding domain (LBD)/Gal4 UAS-tk-luciferase reporter assay in U2-OS cells; format: cell-based
T1 construct: co-transfection of a plasmid containing an LBD/Gal4 fusion construct; expressed in transfected cells; host or cells: U2-OS (human bone cancer line)
T1 sequence (Q03181 211-439 limits assumed): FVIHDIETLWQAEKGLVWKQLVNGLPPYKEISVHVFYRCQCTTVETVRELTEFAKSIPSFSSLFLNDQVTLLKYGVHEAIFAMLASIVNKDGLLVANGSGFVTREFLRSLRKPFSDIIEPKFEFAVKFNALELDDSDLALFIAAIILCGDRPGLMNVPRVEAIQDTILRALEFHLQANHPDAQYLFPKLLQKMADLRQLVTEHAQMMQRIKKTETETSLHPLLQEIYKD
Protocol: General Testing Procedures. Each ligand was screened for PPARδ binding and transactivation activity through the use of two complementary reporter assays as described below. In both systems, transfection efficiency was standardized by co-transfection of a control Renilla luciferase. U2-OS (human bone cancer line) cells were used for both assays because this is the cell line of choice for screening PPAR ligands. At 18 h post-transfection, GW 501, with and without the ligands of the disclosure, was added to the cells and incubated for an additional 24 h. The cells were then harvested and luciferase activities profiled.
A PPARδ protein ligand-binding domain (LBD) assay. The LBD assay consists of cellular co-transfection of a plasmid containing an LBD/Gal4 fusion construct and a vector containing a UAS-tk-luciferase reporter construct under the transcriptional control of a Gal4 upstream activating sequence. This system was used to test for binding activities of candidate PPARδ ligands to the LBD of PPARδ protein.
Referring to FIG. 3, U2-OS cells were transiently transfected with appropriate expression and reporter vectors. Ligands were added to the cell cultures 24 h post-transfection and incubated for an additional 16 h. Lipoprotein lipase (LPL; 2 μg/ml) was added with VLDL (5 μg/ml) to release PPARδ-active triglycerides. FIG. 3A: PPARδ LBD/Gal4/UAS-tk-luc competition assays with VLDL SR13904 (0-10 μM). The reporter activation (fold increase over blank) is presented relative to GW501516 at 7 nM (fold increase over blank=100). FIG. 3B: PPRE reporter assays using 0, 1, and 10 μM SR13904+VLDL. All assays were repeated in triplicate.

[5] = system: A549 cells; experiment: Cell cycle distribution by flow cytometry in A549 cells; format: cell-based, human; details: A549, 2% FBS, 15 μM, after 24 h
Protocol: Referring now to FIG. 5A, SR13904 exerts inhibitory effects on the cell cycle. A representative experiment in which A549 cells were grown in phenol-red-free DMEM+2% charcoal-treated FBS □ SR13904 ([…]). Cells were treated in the exponential phase and assessed by flow cytometry at 24 and 48 h.
Referring now to FIG. 5B, SR13904 treatment arrests A549 cells in the G1 phase of the cell cycle. A549 cells were incubated in 2% FBS (to maintain a high proliferative state) and the cell-cycle profile was determined by flow cytometry after SR13904 treatment (15 μM) for 24 and 48 h, and compared with similar treatment by a control. […] All differences (SR13904-treated vs. vehicle control-treated) were significant; the G1 differences were highly significant (**p=0.001-0.01, ***p=<0.001). The results provide confirming evidence that activated PPARδ increases cell cycle progression through a positive effect on G1-phase cells, and that PPARδ activation upregulates CDK2, CDK4, and cyclin D1 expression patterns.

[6] = system: A549 cells; experiment: Western blotting of cell-cycle regulatory proteins in A549 cells; format: cell-based, human; details: A549, 20 μM, 24 and 48 h, 0.5% FBS
Protocol: Referring now to FIG. 5C, SR13904 treatment of A549 human NSCLC cell line modulates cell cycle protein expression patterns toward an inhibitory phenotype. Given the flow cytometry results described above, the effect of SR13904 on the expression of some key cell-cycle regulatory proteins involved in G1 and S phases was investigated. A549 cells were grown in phenol-red-free DMEM+0.5% charcoal-treated FBS and exposed to the ligand. […]

Cc1cc(SCc2sc(-c3cccc4ccccc34)nc2C)ccc1OCC(=O)O [SR 13904]
CDK4 or cyclin D1 mRNA levels [1]: no effect
steady state levels of CDK2 mRNA [1]: significantly reduced
CDK2 protein levels ([2]; VLDL 2 μg/ml + LPL 2 μg/ml): decreased
cyclin D1 protein levels [2]: decreased
pIC50 [3]: 5.00 to 5.10
inhibition of binding of VLDL to PPARδ ([4]; SR13904 0-10 μM with VLDL): significantly inhibit
concentrations at which ligand binds LBD of PPARδ, attenuating LBD binding of GW501 ([4]; competition with GW501 (7 nM), U2-OS cells): 1 to 10 µM
PPARδ ligand profile (agonist/antagonist) ([4]; from GAL-4 binding and PPRE transactivation reporter screens): PPARδ antagonist
fraction of cells in the G1 phase [5]: significantly increased
fraction of cells in the S phase [5]: decreased
levels of cyclin E, p21, and p27 [6]: little or no effect
steady state levels of CDK2, CDK4, cyclin D1, and cyclin A proteins [6]: decreased
